The source of these data is ChEMBL document CHEMBL1201862, “PubChem BioAssay data set” (2004).

Test systems include BT-549; DU-145; EKVX; HCT-116; K562; NCI-H460; NCI-H522; NCI/ADR-RES; OVCAR-5; OVCAR-8; SF-268; SF-539; SK-MEL-28; SK-MEL-5; SN12C; SNB-19; SW-620; U-251; UACC-257; UACC-62.
Experiment in all cases: NCI anticancer screen, dose series, 48 h

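1) Cells in 96-well plates. 2) Compound, 48 h, 5 concentrations. 3) Linear interpolation between surrounding doses. 4) Unreached endpoint = highest concentration. GI50 is the concentration that inhibits growth by half.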 Active and inactive are the calls of the source. Cut-off read from the data, not from the text of the source: active = GI50 up to about 1.1 µM and inactive = higher.

Take `COc1ccc(CC2NCCc3cc(OC)c(OC)cc32)cc1Br` (stereo not given): the GI50 in the experiment on BT-549 is 87.5 µM (inactive); in the experiment with DU-145, > 100 µM (inactive); in the experiment with EKVX, 35.2 µM (inactive); in the experiment on HCT-116, 14.9 µM (inactive); with K562, 16.6 µM (inactive); in the experiment on NCI-H460 it was 21.2 µM (inactive). Further, the GI50 in the experiment on NCI-H522 was 34.4 µM (inactive); in the experiment on NCI/ADR-RES it was 62.5 µM (inactive); in the experiment on OVCAR-5 it was 19.5 µM (inactive); in the experiment with OVCAR-8, 50.2 µM (inactive); in the experiment with SF-268, 63.5 µM (inactive); in the experiment with SF-539, 77.8 µM (inactive). For the same compound, the GI50 is 16.6 µM (inactive) in the experiment with SK-MEL-28; 13 µM (inactive) in the experiment with SK-MEL-5; 36.1 µM (inactive) with SN12C; 78.3 µM (inactive) in the experiment on SNB-19; 30.9 µM (inactive) in the experiment with SW-620; 34.4 µM (inactive) in the experiment on U-251. Further, the GI50 was 17.3 µM (inactive) in the experiment with UACC-257 and 28.9 µM (inactive) with UACC-62.
For `Nc1nc(F)nc2c1ncn2C1OC(COP(=O)(O)O)C(O)C1O` (stereo not given), the GI50 in the experiment with BT-549 is 56.2 µM (inactive); with DU-145 it was 9.57 µM (inactive); in the experiment with EKVX, 45.9 µM (inactive); in the experiment on HCT-116 it was 33.1 µM (inactive); in the experiment with K562, 111 µM (inactive); in the experiment on NCI-H460, 94 µM (inactive). Further, the GI50 was 63.1 µM (inactive) in the experiment with NCI-H522; 4.11 µM (inactive) in the experiment with NCI/ADR-RES; 41.9 µM (inactive) with OVCAR-5; 2.91 µM (inactive) with OVCAR-8; 76 µM (inactive) with SF-268; 146 µM (inactive) with SF-539. For the same compound, the GI50 in the experiment on SK-MEL-28 was 58.1 µM (inactive); in the experiment with SK-MEL-5, 56.4 µM (inactive); with SN12C it was 6.47 µM (inactive); with SNB-19, 25.1 µM (inactive); in the experiment on SW-620 it was 64.9 µM (inactive); in the experiment on U-251, 231 µM (inactive). For the same compound, the GI50 in the experiment with UACC-257 was 146 µM (inactive); with UACC-62, 56.2 µM (inactive).
In the case of `CN(C)[C@H]1CC[C@H]2[C@@H]3CCC4C[C@@H](NC(=O)NC(Cc5ccccc5)c5nccs5)CC[C@]4(C)[C@H]3CC[C@]12C` (stereo not given in full), the GI50 in the experiment with BT-549 is 1.79 µM (inactive); in the experiment on DU-145, 2.28 µM (inactive); in the experiment on EKVX it was 1.96 µM (inactive); with HCT-116, 0.955 µM (active); with K562, 0.128 µM (active); in the experiment with NCI-H460 it was 1.06 µM (active). For the same compound, the GI50 with NCI-H522 is 2 µM (inactive); in the experiment on NCI/ADR-RES it was 1.77 µM (inactive); in the experiment with OVCAR-5, 1.76 µM (inactive); in the experiment with OVCAR-8, 0.667 µM (active); in the experiment with SF-268, 1.66 µM (inactive); with SF-539 it was 1.75 µM (inactive). For the same compound, the GI50 in the experiment with SK-MEL-28 is 1.11 µM (active); in the experiment with SK-MEL-5, 0.789 µM (active); in the experiment on SN12C, 0.348 µM (active); in the experiment on SNB-19 it was 1.79 µM (inactive); in the experiment with SW-620 it was 0.687 µM (active); in the experiment on U-251 it was 0.698 µM (active). Also, the GI50 with UACC-257 is 1.87 µM (inactive); in the experiment with UACC-62, 1.92 µM (inactive).
As for `CNC1C(=O)C(C)C(O)(C(CC(C)C(O)/C=C/C=C/CNC(=O)C(C)(C)C(O)\C(C)=C/C=C\C=C\Cc2cnc(C)o2)OC)C12C(=O)OC2C.CNC1C(=O)C(C)C(O)(C(CC(C)C(O)/C=C/C=C/CNC(=O)C(C)(C)C(O)\C(C)=C/C=C\C=C\Cc2cnc(C)o2)OC)C12C(=O)OC2COC` (stereo not given), the GI50 in the experiment with BT-549 was 25.1 µM (inactive); in the experiment on DU-145, 31.5 µM (inactive); in the experiment on EKVX, 0.292 µM (active); in the experiment on HCT-116, 15.1 µM (inactive); in the experiment with K562 it was 0.181 µM (active); with NCI-H460 it was 15.2 µM (inactive). Further, the GI50 in the experiment with NCI-H522 is 0.565 µM (active); with NCI/ADR-RES, 15.9 µM (inactive); in the experiment on OVCAR-5, 20.6 µM (inactive); with OVCAR-8, 0.459 µM (active); with SF-268, 5.68 µM (inactive); in the experiment on SF-539 it was 23.2 µM (inactive). Besides, the GI50 was 23.1 µM (inactive) in the experiment with SK-MEL-28; 0.191 µM (active) in the experiment on SK-MEL-5; 10.9 µM (inactive) in the experiment with SN12C; 19.9 µM (inactive) in the experiment with SNB-19; 8.65 µM (inactive) with SW-620; 1.15 µM (inactive) in the experiment with U-251. Moreover, the GI50 in the experiment on UACC-257 is 0.188 µM (active); with UACC-62, 13.3 µM (inactive).
Take `CN(CCCNC(=O)c1cn(C)c2c1ccc1cc(Cl)c(Cl)cc12)CCCNC(=O)c1cn(C)c2c1ccc1cc(Cl)c(Cl)cc12`: the GI50 in the experiment with BT-549 was 15.6 µM (inactive); with DU-145, 15.3 µM (inactive); in the experiment on EKVX, 15.4 µM (inactive); in the experiment with HCT-116, 12.2 µM (inactive); in the experiment with K562, 5.41 µM (inactive); with NCI-H460, 3.97 µM (inactive). Also, the GI50 in the experiment on NCI-H522 is 14.6 µM (inactive); in the experiment on NCI/ADR-RES, 15.2 µM (inactive); with OVCAR-5, 16.4 µM (inactive); in the experiment with OVCAR-8, 14.8 µM (inactive); with SF-268 it was 13.7 µM (inactive); in the experiment with SF-539, 15.7 µM (inactive). The GI50 in the experiment with SK-MEL-28 is 18.5 µM (inactive); in the experiment with SK-MEL-5, 14.7 µM (inactive); in the experiment with SN12C, 13.6 µM (inactive); in the experiment on SNB-19, 7 µM (inactive); in the experiment on SW-620, 4.19 µM (inactive); with U-251, 3.03 µM (inactive). For the same compound, the GI50 is 19.3 µM (inactive) in the experiment on UACC-257 and 16.1 µM (inactive) in the experiment with UACC-62.
For `CCn1cc(C(=O)O)c(=O)c2cc3c(cc21)S(=O)(=O)CC3`, the GI50 in the experiment on BT-549, in the experiment with DU-145, in the experiment with EKVX, in the experiment with HCT-116, in the experiment with K562 and in the experiment on NCI-H460 was > 100 µM (inactive) each time. The GI50 in the experiment with NCI-H522, with NCI/ADR-RES, in the experiment with OVCAR-5, with OVCAR-8, in the experiment on SF-268 and with SF-539 was > 100 µM (inactive) each time. In addition, the GI50 was > 100 µM (inactive) with SK-MEL-28; > 100 µM (inactive) in the experiment on SK-MEL-5; > 100 µM (inactive) in the experiment with SN12C; > 100 µM (inactive) in the experiment with SNB-19; > 100 µM (inactive) in the experiment with SW-620; 24.2 µM (inactive) in the experiment with U-251. In addition, the GI50 in the experiment on UACC-257 and in the experiment with UACC-62 was > 100 µM (inactive) in each case.
For `ON[C@@H]1C=C[C@H](n2cnc3c(NC4CC4)ncnc32)C1`, the GI50 was > 100 µM (inactive) in the experiment on BT-549; > 100 µM (inactive) with DU-145; > 100 µM (inactive) in the experiment with EKVX; 86.5 µM (inactive) in the experiment on HCT-116; > 100 µM (inactive) in the experiment with K562; > 100 µM (inactive) in the experiment on NCI-H460. Further, the GI50 in the experiment on NCI-H522, with NCI/ADR-RES, in the experiment on OVCAR-5, in the experiment with OVCAR-8, with SF-268 and in the experiment with SF-539 was > 100 µM (inactive) in each case. Also, the GI50 with SK-MEL-28, in the experiment on SK-MEL-5, in the experiment on SN12C, in the experiment with SNB-19, in the experiment on SW-620 and with U-251 was > 100 µM (inactive) in each case. The GI50 in the experiment with UACC-257 and in the experiment with UACC-62 was > 100 µM (inactive) in each case.
For `COc1ccccc1C1CC(=O)CC(c2ccccc2OC)C12C(=O)NC(=S)NC2=O` (stereo not given), the GI50 in the experiment on BT-549 was > 100 µM (inactive); in the experiment with DU-145 it was 57.9 µM (inactive); in the experiment with EKVX, > 100 µM (inactive); with HCT-116, 80.5 µM (inactive); in the experiment with K562, 47.6 µM (inactive); in the experiment on NCI-H460, 54.5 µM (inactive). Moreover, the GI50 in the experiment with NCI-H522 was 51.3 µM (inactive); with NCI/ADR-RES, > 100 µM (inactive); in the experiment on OVCAR-5, > 100 µM (inactive); in the experiment with OVCAR-8 it was > 100 µM (inactive); in the experiment with SF-268 it was > 100 µM (inactive); in the experiment on SF-539, 81.8 µM (inactive). Besides, the GI50 in the experiment with SK-MEL-28 is 32.4 µM (inactive); in the experiment with SK-MEL-5, 50.2 µM (inactive); in the experiment on SN12C, 65.8 µM (inactive); in the experiment on SNB-19, > 100 µM (inactive); in the experiment with SW-620 it was 48.5 µM (inactive); with U-251, > 100 µM (inactive). The GI50 with UACC-257 was 88.3 µM (inactive); in the experiment with UACC-62 it was > 100 µM (inactive).
On to `Cc1ccc(NC(=S)C#N)c(C)c1`, for which the GI50 in the experiment on BT-549 is 54.1 µM (inactive); with DU-145 it was > 100 µM (inactive); in the experiment on EKVX it was > 93.5 µM (inactive); with HCT-116, > 78.7 µM (inactive); with K562 it was 38.4 µM (inactive); with NCI-H460, > 89.7 µM (inactive). Moreover, the GI50 in the experiment with NCI-H522 is 46.7 µM (inactive); in the experiment on NCI/ADR-RES, 75.7 µM (inactive); in the experiment on OVCAR-5 it was > 100 µM (inactive); with OVCAR-8 it was > 100 µM (inactive); in the experiment with SF-268, > 87.3 µM (inactive); in the experiment on SF-539 it was > 100 µM (inactive). The GI50 in the experiment with SK-MEL-28 is 65.3 µM (inactive); in the experiment on SK-MEL-5 it was 51.9 µM (inactive); in the experiment with SN12C, > 100 µM (inactive); with SNB-19 it was > 100 µM (inactive); with SW-620 it was > 73.5 µM (inactive); with U-251, > 86.3 µM (inactive). In addition, the GI50 in the experiment with UACC-257 is 63.2 µM (inactive); with UACC-62 it was 97.3 µM (inactive).
For the compound `Cc1ccccc1-c1nc2c(N)nc(N)nc2nc1N`, the GI50 with BT-549 was > 100 µM (inactive); in the experiment with DU-145, 8.17 µM (inactive); with EKVX, 38.1 µM (inactive); with HCT-116 it was 1.67 µM (inactive); in the experiment with K562 it was 0.723 µM (active); with NCI-H460, 3.69 µM (inactive). The GI50 in the experiment with NCI-H522 was 22.6 µM (inactive); with NCI/ADR-RES, 27 µM (inactive); in the experiment with OVCAR-5, 39.9 µM (inactive); in the experiment with OVCAR-8, 14.1 µM (inactive); in the experiment on SF-268, 8.38 µM (inactive); in the experiment on SF-539 it was 22.5 µM (inactive). The GI50 is 67.9 µM (inactive) with SK-MEL-28; > 100 µM (inactive) with SK-MEL-5; 6.84 µM (inactive) in the experiment with SN12C; 44.3 µM (inactive) in the experiment with SNB-19; 4.86 µM (inactive) in the experiment with SW-620; 4.33 µM (inactive) with U-251. Besides, the GI50 with UACC-257 was 86.3 µM (inactive); with UACC-62 it was 4.91 µM (inactive).
